Measurements from article PMC12920294, “Optimizing uPAR-targeting radiopeptides for improved tissue distribution: progress towards radionuclide therapy” (European Journal of Nuclear Medicine and Molecular Imaging, 2025).

Key:
physchem = assay type: physicochemical; conditions: pH 7.4
Experimental: The ^177Lu-labeled peptides (50 MBq/nmol) were incubated in mouse or human blood plasma (10 MBq/200 µL) over an incubation period of 24 h at 37 °C. Aliquots and control samples of the radiopeptides diluted in saline were analyzed after 1 h, 4 h and 24 h using thin layer chromatography (TLC) as previously reported (Supplementary Material). The distribution coefficients (logD values) of the ^177Lu-labeled peptides (50 MBq/nmol) were determined using a shake-flask method according to a previously published procedure (Supplementary Material). Methods: The radiopeptides (50 MBq/nmol) were diluted in phosphate buffered saline (PBS) pH 7.4 to obtain an activity concentration of 10 MBq/500 µL. A sample of this radiopeptide solution (~0.5 MBq, 25 µL, 0.01 nmol) was added to a mixture of PBS pH 7.4 (1475 µL) and n-octanol (1500 µL). The vials were vortexed vigorously for 1 min followed by centrifugation (560 rcf, 25°C, 6 min) for phase separation. Aliquots were taken from each phase and measured in a γ-counter (Wallac Wizard 1480, PerkinElmer). The distribution coefficients were calculated as the logarithmic value of the ratio of counts per minute (cpm) measured in the n-octanol phase relative to the cpm measured in the PBS phase. The results were listed as average ± SD of the data obtained from 3 independent experiments, each performed with five replicates.

[1] = system: HEK-uPAR xenograft-bearing mice; conditions: mouse, in vivo
human uPAR = target: T1, human uPAR (Homo sapiens, UniProt Q03405); experiment: uPAR-binding affinity, saturation binding on HEK-uPAR cells; conditions: 4 °C
T1 construct: host or cells: HEK cells transfected with human uPAR (HEK-uPAR)
T1 sequence (Q03405 23-335): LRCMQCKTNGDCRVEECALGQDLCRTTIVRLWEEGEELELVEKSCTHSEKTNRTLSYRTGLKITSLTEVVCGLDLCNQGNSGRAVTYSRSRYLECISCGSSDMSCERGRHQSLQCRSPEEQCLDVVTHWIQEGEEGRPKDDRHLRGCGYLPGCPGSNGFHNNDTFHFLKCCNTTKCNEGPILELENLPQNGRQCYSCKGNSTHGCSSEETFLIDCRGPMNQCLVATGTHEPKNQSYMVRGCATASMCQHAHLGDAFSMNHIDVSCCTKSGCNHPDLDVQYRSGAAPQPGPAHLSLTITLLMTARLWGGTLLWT
Experimental: To determine the uPAR-binding affinity of the radiopeptides, saturation binding experiments were performed according to a previously published procedure using HEK-uPAR cells in 48-well plates (Supplementary Material). The assay was performed on ice (at 4 °C) to prevent target internalization upon binding of the radiopeptides. The cells were incubated with the radiopeptides in the presence or absence of excess AE105 (40 µM) together with the respective radiopeptides at concentrations ranging between 1 nM and 1600 nM. After removal of the supernatant, the HEK-uPAR cells were rinsed and lysed to be measured using a γ-counter (Wallac Wizard 1480, PerkinElmer). The KD values were determined by plotting the specific binding (values of cell samples incubated without AE105 minus the respective values of samples incubated with AE105) against the molar concentration of the added peptide. A nonlinear regression analysis was performed using GraphPad Prism software (version 10.1.1). The results are reported as average of KD values ± SD of n = 3 independent experiments. Methods: HEK-uPAR cells were seeded in poly-D-lysine-coated 48-well plates (0.25 × 10^6 in 0.5 mL per well) using DMEM culture medium with supplements. The cells were incubated at 37 °C and 5% CO2 overnight to allow adhesion and growth. The well plates with HEK-uPAR cells were placed on ice for the entire experiment to prevent internalization of the radiopeptides. After removal of the medium, the HEK-uPAR cells were rinsed with cold PBS (0.5 mL, pH 7.4) followed by the addition of DMEM culture medium without supplements (450 µL/well) in the presence or absence of AE105 (final concentration 40 µM) as a receptor blocking agent. The cells were incubated for 30 min on ice. The respective radiopeptides (5 MBq/nmol) were diluted in PBS at peptide concentrations 10‒16000 nM. A volume of 50 µL from each dilution was added to each well to obtain peptide concentrations in the range of […]. The assay was performed at 4 °C on ice, to prevent internalization of the radiopeptides. The radiopeptides were incubated on cells for 1 h on a shaker before rinsing twice with PBS (0.5 mL, pH 7.4). Increasing ligand concentrations were used to approximate saturation of the binding sites (Bmax value) at equilibrium. Ligand depletion effects of the ligand concentration in the supernatant of the cell samples were not taken into account. The cells were lysed using an aqueous NaOH solution (1 M, 600 µL) and the lysates were transferred to radioimmunoassay tubes for counting the activity in a γ-counter (Wallac Wizard 1480, PerkinElmer). The KD values were determined by plotting the specific binding (total binding minus unspecific binding) against the molar concentration of the added radiopeptide using GraphPad Prism software (version 10.1.1). The results were then expressed as average ± SD of n = 3 independent experiments.

[2] = system: HEK-uPAR xenograft-bearing mice; conditions: mouse, in vivo; remark: listed apart in the source
Experimental: Single-photon emission computed tomography/computed tomography (SPECT/CT) experiments were performed using a small-animal SPECT/CT camera (NanoSPECT/CTTM, Mediso Medical Imaging Systems, Budapest, Hungary) as described previously (Supplementary Material). HEK-uPAR xenografted nude mice were scanned at 1 h, 4 h, 24 h […] after injection of the respective radiopeptide (25 MBq, 0.5 nmol, in 100 μL 0.9% NaCl containing 0.05% bovine serum albumin (BSA)) The images were prepared using VivoQuant post-processing software (version 3.5, inviCRO Imaging Services and Software, Boston, USA). A Gauss post-reconstruction filter (full width at half maximum, 1.0 mm) was applied and the scale of activity was set as indicated on the images (minimum value = 0.2 Bq/voxel, maximum value = 20 Bq/voxel). Methods: SPECT/CT experiments were performed with CD1 nude mice (Crl:CD1-Foxn1^nu) approximately 3-9 weeks after HEK-uPAR cell inoculation. The mice were scanned 1 h, 4 h and 24 h post injection (p.i.) of the respective radiopeptide (25 MBq, 0.5 nmol, 100 μL, diluted in 0.9% NaCl containing 0.05% bovine serum albumin (BSA)). Imaging studies were performed using a four-head, multiplexing, multi-pinhole small-animal SPECT/CT camera (NanoSPECT/CT^TM, Mediso Medical Imaging Systems, Budapest, Hungary). Each head was outfitted with a tungsten-based aperture of nine 1.4 mm-diameter pinholes and a thickness of 10 mm. CT scans of 7-9 min duration were followed by SPECT scans of 45-50 min. The images were acquired using Nucline Software (version 10.2, Mediso Ltd., Budapest, Hungary). The real-time CT reconstruction used a cone-beam filtered backprojection. The reconstruction of SPECT data was performed with HiSPECT software (version 1.4.3049, […] GmbH, Göttingen, Germany) using γ-energies of 56.1 keV (± 10%), 112.9 keV (± 10%) and 208.4 keV (± 10%) for lutetium-177. The images were prepared using VivoQuant post-processing software (version 3.5, inviCRO Imaging Services and Software, Boston, USA). A Gauss post-reconstruction filter (full width at half maximum, 1.0 mm) was applied and the scale of activity was set as indicated on the images (minimum value = 0.2 Bq/voxel, maximum value = 20 Bq/voxel).

Row | SMILES | logD (physchem) | Xgrft-to-liver ratio [1] | Kd (human uPAR) | SPECT/CT: accumulation in HEK-uPAR xenograft [2] | SPECT/CT: blood retention [2] | AUC0h→48h, HEK-uPAR xenograft [1] | AUC0h→48h, blood [1] | AUC0h→48h, kidneys [1] | AUC0h→48h, liver [1] | Blood AUC0h→48h relative to [177Lu]Lu-DOTA-AE105 [1] | HEK-uPAR xenograft AUC0h→48h relative to [177Lu]Lu-DOTA-AE105 [1] | Kidneys AUC0h→48h relative to [177Lu]Lu-DOTA-AE105 [1] | Liver AUC0h→48h relative to [177Lu]Lu-DOTA-AE105 [1] | Xenograft-to-blood AUC0h→48h ratio relative to [177Lu]Lu-DOTA-AE105 [1] | Kidneys uptake ([1]; CD1 nude, 0.5 nmol/mouse, 24 h)
1 | Cc1ccc(CCCC(=O)NCCOCCOCCOCCOCCOCCC(=O)NCCCC[C@H](NC(=O)CN2CCN(CC(=O)O)CCN(CC(=O)O)CCN(CC(=O)O)CC2)C(=O)N[C@@H](CC(=O)O)C(=O)N[C@@H](CC2CCCCC2)C(=O)N[C@@H](Cc2ccccc2)C(=O)N[C@H](CO)C(=O)N[C@H](CCCNC(=N)N)C(=O)N[C@@H](Cc2ccc(O)cc2)C(=O)N[C@@H](CC(C)C)C(=O)N[C@@H](Cc2c[nH]c3ccccc23)C(=O)N[C@@H](CO)C(N)=O)cc1 [[^177Lu]Lu-uPAR-18, metal not drawn] | -0.5 ± 0.07 | 20 ± 3 | 33 ± 4 nM | highest at 1 h p.i. and relatively well retained over the following hours |  |  |  |  |  |  |  |  |  |  | 
2 | Cc1ccc(CCCC(=O)NCCCCCCCC(=O)NCCCC[C@H](NC(=O)CN2CCN(CC(=O)O)CCN(CC(=O)O)CCN(CC(=O)O)CC2)C(=O)N[C@@H](CC(=O)O)C(=O)N[C@@H](CC2CCCCC2)C(=O)N[C@@H](Cc2ccccc2)C(=O)N[C@H](CO)C(=O)N[C@H](CCCNC(=N)N)C(=O)N[C@@H](Cc2ccc(O)cc2)C(=O)N[C@@H](CC(C)C)C(=O)N[C@@H](Cc2c[nH]c3ccccc23)C(=O)N[C@@H](CO)C(N)=O)cc1 [[^177Lu]Lu-uPAR-12, metal not drawn] | 0.96 ± 0.15 | 1.3 ± 0.1 | 38 ± 9 nM |  | substantial blood retention was observed over the entire time of investigation |  |  |  |  |  |  |  |  |  | 
3 | Cc1ccc(CCCC(=O)NCCOCCOCCOCCC(=O)NCCCC[C@H](NC(=O)CN2CCN(CC(=O)O)CCN(CC(=O)O)CCN(CC(=O)O)CC2)C(=O)N[C@@H](CC(=O)O)C(=O)N[C@@H](CC2CCCCC2)C(=O)N[C@@H](Cc2ccccc2)C(=O)N[C@H](CO)C(=O)N[C@H](CCCNC(=N)N)C(=O)N[C@@H](Cc2ccc(O)cc2)C(=O)N[C@@H](CC(C)C)C(=O)N[C@@H](Cc2c[nH]c3ccccc23)C(=O)N[C@@H](CO)C(N)=O)cc1 [[^177Lu]Lu-uPAR-15, metal not drawn] | -0.03 ± 0.01 | 6.5 ± 1.7 | 42 ± 3 nM | highest at 1 h p.i. and relatively well retained over the following hours |  |  |  |  |  |  |  |  |  |  | 
4 | Cc1ccc(CCCC(=O)NCCOCCOCCOCCOCCC(=O)NCCCC[C@H](NC(=O)CN2CCN(CC(=O)O)CCN(CC(=O)O)CCN(CC(=O)O)CC2)C(=O)N[C@@H](CC(=O)O)C(=O)N[C@@H](CC2CCCCC2)C(=O)N[C@@H](Cc2ccccc2)C(=O)N[C@H](CO)C(=O)N[C@H](CCCNC(=N)N)C(=O)N[C@@H](Cc2ccc(O)cc2)C(=O)N[C@@H](CC(C)C)C(=O)N[C@@H](Cc2c[nH]c3ccccc23)C(=O)N[C@@H](CO)C(N)=O)cc1 [[^177Lu]Lu-uPAR-11, metal not drawn] | -0.26 ± 0.09 |  | 37 ± 11 nM | highest at 1 h p.i. and relatively well retained over the following hours |  | 410 ± 21 % IA/g*h | 109 ± 6 % IA/g*h | 103 ± 5 % IA/g*h | 38 ± 2 % IA/g*h | 3.9 fold | 16 fold | ~ 1.7 fold | ~ 5.5 fold | 4.2 fold | 
5 | Cc1ccc(CCCC(=O)NCCOCCOCCOCCOCCC(=O)NC[C@H](NC(=O)CN2CCN(CC(=O)O)CCN(CC(=O)O)CCN(CC(=O)O)CC2)C(=O)N[C@@H](CC(=O)O)C(=O)N[C@@H](CC2CCCCC2)C(=O)N[C@@H](Cc2ccccc2)C(=O)N[C@H](CO)C(=O)N[C@H](CCCNC(=N)N)C(=O)N[C@@H](Cc2ccc(O)cc2)C(=O)N[C@@H](CC(C)C)C(=O)N[C@@H](Cc2c[nH]c3ccccc23)C(=O)N[C@@H](CO)C(N)=O)cc1 [[^177Lu]Lu-uPAR-14, metal not drawn] | -0.13 ± 0.08 | 7.4 ± 1.0 | 37 ± 7 nM | almost entirely cleared at 24 h p.i. |  |  |  |  |  |  |  |  |  |  | 
6 | Cc1ccc(CCCC(=O)NCCOCCOCCOCCOCCC(=O)NCCCC[C@H](NC(=O)CC[C@H](C(=O)O)N2CCN(CC(=O)O)CCN(CC(=O)O)CCN(CC(=O)O)CC2)C(=O)N[C@@H](CC(=O)O)C(=O)N[C@@H](CC2CCCCC2)C(=O)N[C@@H](Cc2ccccc2)C(=O)N[C@H](CO)C(=O)N[C@H](CCCNC(=N)N)C(=O)N[C@@H](Cc2ccc(O)cc2)C(=O)N[C@@H](CC(C)C)C(=O)N[C@@H](Cc2c[nH]c3ccccc23)C(=O)N[C@@H](CO)C(N)=O)cc1 [[^177Lu]Lu-uPAR-17, metal not drawn] | -1.56 ± 0.03 | 10 ± 3 | 31 ± 6 nM | almost entirely cleared at 24 h p.i. |  |  |  |  |  |  |  |  |  |  | 1.3 ± 0.2 %IA/g
